Measurements as given in article PMC12406204 (Journal of Medicinal Chemistry, 2025).
Values after ≈ are worked out from the molar mass of the structure shown.

What was measured:
CB1R [1] = target: T1, CB1R (Homo sapiens, UniProt P21554); assay: CB1R radioligand binding competition ([3H]CP55,940); design: host or cells: CHO-CB1 C3 cell line; settings: for CB1R % at 1 μM: percentage displacement of specific [3H]CP 55,940 binding at 1 μM, n = 2
P-glycoprotein (P-gp) = P-glycoprotein (P-gp) (Homo sapiens, UniProt P08183); assay: P-gp interaction, Calcein-AM experiment; type: cell-based; settings: for EC50: Calcein-AM; for P-gp interaction % at 100 μM: inhibition at 100 μM
Description: To validate the early predictions from the CNS-MPO and BOILED-egg models (Figure ), we experimentally assessed the BBB permeability and P-gp interaction of the selected CB2R agonists. For these studies, two pairs of amide enantiomers (18p and 18o, 18e, and 18f) were selected, and the evaluations were conducted using established protocols previously published by our group. Key parameters measured included the permeability coefficients (P appBA and P appAB), the bidirectional permeability ratio (BA/AB), and the degree of interaction with P-gP, as detailed in Table .
This experiment was carried out as described by Contino et al. with minor modifications. Each cell line (30,000 cells per well) was seeded into black CulturePlate 96/wells plate with 100 μL medium and allowed to become confluent overnight. 100 μL of test compounds were solubilized in culture medium and added to monolayers, with final concentrations ranging from 0.1 to 100 μM. 96/Wells plate was incubated at 37 °C for 30 min. Calcein-AM was added in 100 μL of Phosphate Buffered Saline (PBS) to yield a final concentration of 2.5 μM and plate was incubated for 30 min. Each well was washed 3 times with ice cold PBS. Saline buffer was added to each well and the plate was read with Victor3 (PerkinElmer) at excitation and emission wavelengths of 485 and 535 nm, respectively. In these experimental conditions Calcein cell accumulation in the absence and in the presence of tested compounds was evaluated and fluorescence basal level was estimated with untreated cells. In treated wells the increase of fluorescence with respect to basal level was measured. EC50 values were determined by fitting the fluorescence increase percentage versus log[dose].

[2] = Kinetic solubility (nephelometry); type: physicochemical; settings: 37 °C, aqueous buffer, kinetic from dmso stock; 1:99 DMSO/PSB buffer; PBS pH 7
Description: The solubility of selected compounds was evaluated by following a previously described method. A 10 mM stock solution of the compound was serially diluted in 100% DMSO and 2.5 μL of this solution was added to a 384-well UV-transparent plate (Greiner) containing 47.5 μL of PBS (pH = 7). The plate was incubated at 37 °C for 4 h and the light scattering was measured in a Nephelostar plus reader (BMG LABTECH). The data was fitted to a segmented linear regression for measuring the compound solubility.

[3] = Human microsomal stability; type: in vitro ADME; settings: for microsomal stability % remanent: Human, sampling time 60 min; for microsomal CLint / half-life: human, liver microsomes, pH 7.4; for half-life: read-out: microsomal stability t1/2
Description: The human microsomal stability of selected compounds was evaluated by following a previously described method. The human microsomes employed were purchased from Tebu-Xenotech. The compound was incubated with the microsomes at 37 °C in a 50 mM phosphate buffer (pH = 7.4) containing 3 mM MgCl2, 1 mM NADP, 10 mM glucose-6-phosphate and 1 U/mL glucose-6-phosphate-dehydrogenase. Samples (75 μL) were taken from each well at 0, 10, 20, 40, and 60 min and transferred to a plate containing 4 °C 75 μL acetonitrile and 30 μL of 0.5% formic acid in water were added for improving the chromatographic conditions. The plate was centrifuged ([…], 30 min) and supernatants were taken and analyzed in an UPLC-MS/MS (Xevo-TQD, Waters) by employing a BEH C18 column and an isocratic gradient of 0.1% formic acid in water: 0.1% formic acid acetonitrile (60:40). The metabolic stability of the compounds was calculated from the logarithm of the remaining compounds at each of the time point studied.

[4] = Mouse microsomal stability; type: in vitro ADME; settings: for microsomal stability % remanent: Mouse, sampling time 60 min; for microsomal CLint / half-life: mouse, microsomes, pH 7.4; for half-life: read-out: microsomal stability t1/2
CB1R [5] = target: T1, CB1R; assay: CB1R Gi protein-mediated cAMP inhibition assay; type: cell-based; settings: for functional selectivity ratio: CB1R vs CB2R cAMP EC50
Excerpt: Given their excellent CB2R functional activity and ability to cross the blood–brain barrier, compounds 18p and 18o were selected for CB1R functional evaluation to assess potential risks of CB1R-mediated central effects. […] Full CB1R dose–response curves are provided in the Supporting Information (Figure S6).

Sequence of P-glycoprotein (P-gp) (P08183 whole entry): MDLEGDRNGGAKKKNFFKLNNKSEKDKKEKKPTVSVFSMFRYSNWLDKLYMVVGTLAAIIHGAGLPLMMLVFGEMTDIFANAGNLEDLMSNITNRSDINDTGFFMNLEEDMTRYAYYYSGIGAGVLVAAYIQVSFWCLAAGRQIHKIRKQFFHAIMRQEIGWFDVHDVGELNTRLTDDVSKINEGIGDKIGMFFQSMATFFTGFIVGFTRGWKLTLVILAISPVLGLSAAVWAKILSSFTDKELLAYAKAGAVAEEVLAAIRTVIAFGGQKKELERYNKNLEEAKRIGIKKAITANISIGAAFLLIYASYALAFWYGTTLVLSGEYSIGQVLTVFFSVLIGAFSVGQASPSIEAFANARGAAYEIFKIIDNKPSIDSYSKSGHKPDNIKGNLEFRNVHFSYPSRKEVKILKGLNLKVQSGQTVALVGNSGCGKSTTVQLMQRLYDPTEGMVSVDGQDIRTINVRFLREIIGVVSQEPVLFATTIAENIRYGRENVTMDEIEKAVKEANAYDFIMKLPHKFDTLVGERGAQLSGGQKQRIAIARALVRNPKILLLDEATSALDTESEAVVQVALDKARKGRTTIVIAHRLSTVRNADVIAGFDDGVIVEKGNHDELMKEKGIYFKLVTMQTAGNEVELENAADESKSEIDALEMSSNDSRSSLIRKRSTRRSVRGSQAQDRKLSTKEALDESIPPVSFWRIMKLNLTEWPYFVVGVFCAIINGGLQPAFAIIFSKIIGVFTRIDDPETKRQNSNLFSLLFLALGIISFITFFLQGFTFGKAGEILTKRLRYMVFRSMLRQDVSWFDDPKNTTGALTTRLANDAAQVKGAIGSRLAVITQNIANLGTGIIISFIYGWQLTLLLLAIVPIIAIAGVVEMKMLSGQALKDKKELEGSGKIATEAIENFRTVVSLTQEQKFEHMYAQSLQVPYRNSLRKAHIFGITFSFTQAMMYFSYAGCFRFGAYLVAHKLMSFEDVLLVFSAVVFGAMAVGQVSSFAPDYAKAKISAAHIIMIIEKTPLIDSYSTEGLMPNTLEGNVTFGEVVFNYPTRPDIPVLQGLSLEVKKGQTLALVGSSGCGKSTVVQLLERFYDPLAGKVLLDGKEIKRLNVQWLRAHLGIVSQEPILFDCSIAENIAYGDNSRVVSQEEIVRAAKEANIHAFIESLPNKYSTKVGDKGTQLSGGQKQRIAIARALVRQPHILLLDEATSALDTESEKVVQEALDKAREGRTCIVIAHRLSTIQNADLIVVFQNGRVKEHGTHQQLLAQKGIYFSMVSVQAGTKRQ
T1 sequence (P21554 whole entry): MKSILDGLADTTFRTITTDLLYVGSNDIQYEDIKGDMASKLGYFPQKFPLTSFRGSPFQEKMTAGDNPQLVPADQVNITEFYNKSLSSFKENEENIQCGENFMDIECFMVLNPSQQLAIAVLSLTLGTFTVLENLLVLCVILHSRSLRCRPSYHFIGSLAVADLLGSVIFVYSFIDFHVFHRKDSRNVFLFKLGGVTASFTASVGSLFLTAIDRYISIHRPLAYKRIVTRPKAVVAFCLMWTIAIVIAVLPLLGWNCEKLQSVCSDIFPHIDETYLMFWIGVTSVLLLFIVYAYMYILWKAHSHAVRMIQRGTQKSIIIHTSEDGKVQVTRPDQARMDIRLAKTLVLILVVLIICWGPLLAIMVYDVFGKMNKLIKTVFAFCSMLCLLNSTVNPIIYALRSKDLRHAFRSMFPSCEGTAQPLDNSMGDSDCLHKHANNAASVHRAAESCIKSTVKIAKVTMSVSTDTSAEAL

SMILES | CB1R % at 1 μM (CB1R [1]) [%] | EC50 (P-glycoprotein (P-gp)) [nM] | solubility at 4 h [2] [µM] | microsomal stability % remanent [3] [%] | microsomal CLint [3] [µL/min/mg] | half-life [3] [min] | microsomal stability % remanent [4] [%] | microsomal CLint [4] [µL/min/mg] | half-life [4] [min] | P-gp interaction % at 100 μM (P-glycoprotein (P-gp)) [%] | EC50 (CB1R [5]) [nM] | Emax (CB1R [5]) [%] | functional selectivity ratio (CB1R [5]) | also measured
CCCCCn1nc(C(=O)N2CCCC[C@@H]2C(=O)OC)c2ccccc21 [16j] | 3 |  |  |  |  |  |  |  |  |  |  |  |  | 
CCCCCn1nc(C(=O)N2CCCC[C@H]2C(=O)OC)c2ccccc21 [16i] |  |  |  |  |  |  |  |  |  |  |  |  |  | Ki (CB1R [1]; displacement of [3H]CP 55,940, membranes of CHO-CB1 C3 cells, n = 3): 685 ± 21 nM
NC(=O)[C@H]1CCCCN1C(=O)c1cn(CC2CCCCC2)c2ccccc12 [18f] | 11 | 61800 |  |  |  |  |  |  |  |  |  |  |  | 
NC(=O)[C@@H]1CCCCN1C(=O)c1nn(Cc2ccc(F)cc2)c2ccccc12 [18o] |  |  | 43.7 (≈ 16.6 µg/mL) | 59.6 | 11.8 | 50.9 | 28.4 | 26.1 | 28 | 49 | 1070 ± 57 | 36 | > 1780 | 
NC(=O)[C@H]1CCCCN1C(=O)c1nn(Cc2ccc(F)cc2)c2ccccc12 [18p] | 2 | 56900 |  |  |  |  |  |  |  |  | 755 ± 31 | 45 | 111 | 
NC(=O)[C@@H]1CCCCN1C(=O)c1cn(CC2CCCCC2)c2ccccc12 [18e] | 19 |  | 40.1 (≈ 14.7 µg/mL) | 15.9 | 67.3 | 19.4 | 22.3 | 54.3 | 21.8 | 30 |  |  |  | inhibition at 30 min, 1 μM (P-glycoprotein (P-gp); probe Calcein-AM (2.5 μM), at 1 μM as printed in text): 30%
